The values that follow come from PMC11672299, “Conjugation of Polycationic Peptides Extends the Efficacy Spectrum of β‐Lactam Antibiotics” (Advanced Science, 2024).

One experiment concerns E. faecalis ATCC 29212. Kind of experiment: microbe, parasite or virus in culture. Type of experiment: cell-based. The method in brief:
(§1)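 Twofold dilutions in cation-adjusted MHB II, inoculum 5 × 10^5 CFU mL^−1. Combination tests used clavulanic acid at 2 mg L^−1 or avibactam at 4 mg L^−1, fixed per EUCAST.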

The test system of experiment [1] is S. saprophyticus ATCC 15305. The experiment in a line: microbe, parasite or virus in culture. Format: cell-based. The method in brief: as §1
Experiment [2] concerns S. aureus ATCC 25923 (MSSA). Kind of experiment: microbe, parasite or virus in culture. Format: cell-based. The method in brief:
as §1

The next experiment concerns PBP5. Kind of experiment: Gel‐based PBP affinity assay (Bocillin FL competition). Format: binding. To be noted: PBPs from vancomycin‐resistant E. faecalis; compared with parent; at concentrations considerably higher than MICs. As for the experimental part: (§2) B. subtilis DSM 10 and E. faecalis ATCC 51 299 (equal to DSM 12 956) membrane protein fractions were extracted according to the protocol of Dean et al. with minor modifications.^[ [34] ^] From a growing overnight bacterial culture, 3 L of LB (Luria‐Bertani) medium or TSB (tryptic soy broth) were inoculated with B. subtilis DSM 10 and E. faecalis ATCC 51 299, respectively, to obtain an OD600 = 0.3. The cultures were grown to an OD600 = 0.6–0.8 while shaking at 37 °C and cells were harvested by centrifugation at 4000 g for 30 min at 4 °C. The resulting pellet was washed twice with pre‐cooled PBS and resuspended in 30 mL of ice‐cooled PBS. The suspension was sonicated on ice (10 cycles of 30 s at 50% power for B. subtilis; 12 cycles of 30 s at 80% power for E. faecalis; 2 min intervals between cycles) using an Omni Ruptor 4000 ultrasonic homogenizer (Omni International, Kennesaw, GA, USA). Afterwards, the suspension was centrifuged at 7000 g for 10 min at 4 °C. The clear supernatant was transferred into a 50 mL polypropylene tube and centrifuged in a Beckman Coulter centrifuge equipped with a JA‐20 fixed‐angle rotor (Beckman Coulter, Krefeld, Germany) at 50 000 g for 1 h at 4 °C. The resulting pellet was washed with ice‐cold PBS and centrifuged a second time. The pellet was resuspended in 2 mL PBS and aliquots were stored at −80 °C. The protein content was determined using Bradford reagent (VWR International, Darmstadt, Germany) and Pierce BCA (bicinchoninic acid) protein assay kits (Thermo Fisher Scientific, Waltham, MA, USA) for membrane fractions of B. subtilis and E. faecalis, respectively.
(§3) Each dilution was combined with B. subtilis (30 µg) or E. faecalis (15 µg) extracted membrane fractions. As reference samples, membrane fractions incubated with only PBS were prepared. Reaction mixtures were incubated for 20 min at 37 °C while shaking at 400 rpm. Next, Bocillin FL penicillin (Thermo Fisher Scientific, Waltham, MA, USA) was added to obtain a final concentration of 20 µM in the mixture. Samples were incubated for 30 min at 37 °C while shaking at 400 rpm. To denature the samples, 4× Laemmli sample buffer (Bio‐Rad Laboratories, Feldkirchen, Germany) was added, and the samples incubated for 10 min at 70 °C. Afterwards, the samples were centrifuged for 5 min at 13 000 rpm. Samples were separated by SDS‐PAGE using a 10% Tris‐glycine gel for 100 min at 180 V. The bands were visualized using a Typhoon FLA 9500 imager (GE Healthcare, Chicago, IL, USA) with excitation at 473 nm. The gel images were analyzed using ImageJ software. Brightness and contrast were adjusted to improve the signal‐to‐noise ratio and the background signal was subtracted over the whole image. Next, integrated density values of the gel bands were measured and Bocillin FL penicillin labeling of each PBP in antibiotic‐treated samples were set in proportion to the reference sample. IC50 values were calculated with GraphPad Prism software (version 8.0.1) using inhibitor versus normalized response variable slope and least‐squares fit. […] The mean was calculated using the IC50 values of at least two independent assays for each antibiotic.

The target in a further experiment is T1, PBP2A (Bacillus subtilis, UniProt P54488).
T1 construct: endogenous in cells; host or cells: B. subtilis DSM 10, extracted membrane protein fraction
The experiment is described as above. To be noted: B. subtilis membrane fractions, competition with Bocillin FL penicillin; compared with parent β‐lactam. Type of experiment: binding. As for the experimental part:
as §2, §3

Experiment [3] relates to E. casseliflavus (ATCC 700 327). Kind of experiment: Spontaneous resistance rate. Type of experiment: cell-based. To be noted: E. casseliflavus ATCC 700 327, agar with 16 µg mL^−1 CTZ‐R6. As for the experimental part: The rate of spontaneous resistance of E. casseliflavus (ATCC 700 327) against CTZ‐R6 was investigated as previously described.^[ [33] ^] A bacterial suspension of ATCC 700 327 was adjusted to an OD600 of 1 with 0.9% NaCl, corresponding to a theoretical concentration of 2 × 10^8 CFU mL^−1. 250 µL of the suspension were plated on 10 cation‐adjusted MHB II agar plates containing 16 µg mL^−1 CTZ‐R6 and incubated at 37 °C for 18 h. As concentration control, the bacterial inoculum (OD600 = 1) was diluted and plated on antibiotic‐free cation adjusted MHB II agar plates and incubated at 37 °C for 18 h. The number of colonies on both types of plates was counted and the spontaneous resistance rate was calculated accordingly: (2) SpontaneousResistanceRate=#coloniesonantibioticplates/#coloniesoncontrolplatexdilutionfactorx2.5

Experiment [4] relates to CTZ‐resistant C. freundii (n = 3). Type of experiment: cell-based. To be noted: 20 h. The method, then: (§4) The minimum inhibitory concentration (MIC) of the β‐lactam–peptide conjugates was determined by broth microdilution as previously described.^[ [17] ^] Briefly, in cation‐adjusted MHB II medium, a twofold serial dilution of the compounds was prepared in 96‐well round‐bottom polystyrene or polypropylene microtiter plates with each well containing 50 µL. The plates were inoculated with 50 µL bacterial suspension and the final inoculum, in a total volume of 100 µL, contained 5 × 10^5 CFU mL^−1. The microplates were incubated for 20 h at 37 ± 1 °C. The lowest concentration preventing visible bacterial growth was considered the MIC value. For susceptibility testing of combinations of β‐lactamase‐inhibitors with either a β‐lactam antibiotic or a β‐lactam–peptide conjugate, fixed concentrations of the inhibitors according to the EUCAST (European Committee on Antimicrobial Susceptibility Testing) guidelines (clavulanic acid = 2 mg L^−1, avibactam = 4 mg L^−1) were used.

Experiment [5] has as its system CTZ‐resistant A. baumannii (n = 4). Type of experiment: cell-based. As for the experimental part: as §4

Structures are written as SMILES. Where two headings read alike, the source gives them in different places.

T1 sequence (P54488 whole entry): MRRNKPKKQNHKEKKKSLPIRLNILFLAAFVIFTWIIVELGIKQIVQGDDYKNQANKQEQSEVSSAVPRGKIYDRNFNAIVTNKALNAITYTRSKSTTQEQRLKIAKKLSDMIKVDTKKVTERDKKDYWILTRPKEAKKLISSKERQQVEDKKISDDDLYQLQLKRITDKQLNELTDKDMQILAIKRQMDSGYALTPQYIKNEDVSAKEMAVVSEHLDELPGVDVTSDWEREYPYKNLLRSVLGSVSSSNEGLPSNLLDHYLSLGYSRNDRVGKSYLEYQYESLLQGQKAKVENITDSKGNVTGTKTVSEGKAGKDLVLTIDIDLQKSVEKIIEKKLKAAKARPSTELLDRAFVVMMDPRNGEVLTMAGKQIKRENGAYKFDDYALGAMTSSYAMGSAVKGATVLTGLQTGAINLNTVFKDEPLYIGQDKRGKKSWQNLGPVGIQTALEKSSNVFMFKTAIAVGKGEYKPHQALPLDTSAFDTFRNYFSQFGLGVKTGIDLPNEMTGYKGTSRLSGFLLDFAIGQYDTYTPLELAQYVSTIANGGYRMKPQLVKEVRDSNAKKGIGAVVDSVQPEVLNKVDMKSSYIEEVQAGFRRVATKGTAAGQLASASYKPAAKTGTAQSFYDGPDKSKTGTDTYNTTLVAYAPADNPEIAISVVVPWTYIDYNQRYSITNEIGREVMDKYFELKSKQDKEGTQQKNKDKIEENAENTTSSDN

Consider `CC(C)(O/N=C(\C(=O)N[C@@H]1C(=O)N2C(C(=O)[O-])=C(C[n+]3ccccc3)CS[C@H]12)c1csc(N)n1)C(=O)O` [CTZ, ceftazidime, reference compound], for which the MIC in the experiment with E. faecalis ATCC 29212 (Enterococcus faecalis, ATCC29212, E. faecalis ATCC 29212, median (n = 3), read-out: MIC) came to 4 µg/mL; in experiment [1] (Staphylococcus saprophyticus, ATCC15305, S. saprophyticus ATCC 15305, median (n = 3), read-out: MIC), 32 µg/mL; in experiment [2] (Staphylococcus aureus, S. aureus ATCC 25923 (MSSA), median (n = 3), read-out: MIC), 16 µg/mL.
`CC(C)(O/N=C(\C(=O)N[C@@H]1C(=O)N2C(C(=O)[O-])=C(C[n+]3ccccc3)CS[C@H]12)c1csc(N)n1)C(=O)NCCCCCCN1C(=O)CC(SC[C@H](NC(=O)[C@H](CCCNC(=N)N)NC(=O)[C@H](CCCNC(=N)N)NC(=O)[C@H](CCCNC(=N)N)NC(=O)[C@H](CCCNC(=N)N)NC(=O)[C@H](CCCNC(=N)N)NC(=O)[C@@H](N)CCCNC(=N)N)C(N)=O)C1=O` (stereo partly drawn) [CTZ-R6]: the “binding to PBP5” value with PBP5 was “slightly improved binding”. Moreover, on PBP2A, the “affinity to PBP2A” value is listed as “significantly increased”. Further, the spontaneous resistance rate in experiment [3] was < 2.7 × 10^−9. Besides, the MIC range is 0.5 to 64 µg/mL in experiment [4] and 4 to 16 µg/mL in experiment [5] (CTZ‐resistant (n = 4, 20 h)). Moreover, in experiment [5] (CTZ‐resistant A. baumannii), the “increase in antimicrobial activity versus CTZ” value is on record as around 16 fold. In addition, the MIC in the experiment with E. faecalis ATCC 29212 (ATCC 29212, 20 h) is below 0.004 µg/mL; in experiment [1] (ATCC 15305, 20 h), 0.02 µg/mL; in experiment [2] (ATCC 25923, 20 h), 4 µg/mL.
